Columns and labels:
ubiquitin isopeptidases [1] = experiment: In vivo isopeptidase activity after treatment of RKO cells, Ub-PEST; format: cell-based, human; details: 6 h
Method: Isopeptidase Assay. It was hypothesized that the punaglandins would inhibit ubiquitin-isopeptidase activity of the proteasome pathway as does the prostaglandin, Δ^12-PGJ2 (1), but with greater potency because of the chlorinated C-10. To validate this theory, cellular isopeptidase enzymatic activity was measured in vitro after treatment with individual punaglandins, PNG 2 (6), PNG 3 (7), and Z-PNG 4 (9) and in vivo after individual treatment with PNG 4 (8) and PNG 6 (10). This activity was determined utilizing the simple isopeptidase substrate, ubiquitin-PEST (Ub-PEST), a full/length ubiquitin (Ub) molecule fused with an 18-amino acid C-terminal peptide extension that most isopeptidases use as a substrate. The polypeptide extension contains regions rich in Pro (P), Glu (E), Ser (S), and Thr (T) residues called PEST motifs that are responsible for rapid degradation of these and other unstable proteins. Ub isopeptidases specifically cleave this peptide extension, yielding free, full-length Ub. Both the fused Ub-PEST (10.5 kDa) and the cleaved, free Ub (8.5 kDa) can be observed via immunochemical detection.
In vivo Isopeptidase Activity. To investigate whether punaglandins can inhibit isopeptidase activity in vivo, isopeptidase activity was analyzed after punaglandin treatment of RKO cells. PNG 4 (8) and PNG 6 (10) were selected for in vivo investigation because they differ only in enone functionality, where (8) is a dienone and (10) an enone. RKO cells were incubated with 1 μM, 4 μM, or 7 μM of PNG 4 (8) and PNG 6 (10). […] As a positive control, cells were treated with a known isopeptidase inhibitor, shikoccin (SK). After 6 h drug treatment, cells were lysed and protein concentration adjusted to 0.3 mg/mL per sample. Each sample was subsequently incubated with 50 μg/mL of Ub-PEST. The reaction was terminated after 20 min and the respective amounts of Ub-PEST (10 kDa) and free Ub product (8.5 kDa) were determined by SDS-PAGE fractionation.

[2] = test system: cell lines with Wild type p53; details: cited from earlier work
[3] = test system: cell lines with mutant/deleted p53; details: mean of 41-42 cell lines with mutant/deleted p53; read-out: Mutant p53 Mean LC50; cited from earlier work
ubiquitin isopeptidases [4] = experiment: Reversibility of isopeptidase inhibition in cell lysates, z-LRGG-AMC, dialysis; format: biochemical; details: 100 μM
Method: FIG. 5 Reversibility of isopeptidase inhibition by Δ12-PGJ2. Cell lysates (0.5 mg/mL) were treated with DMSO vehicle or 100 μM .12-PGJ2 for 1 hour,25° C. The treated lysates were divided into two aliquots. One aliquot was immediately analyzed for isopeptidase activity by incubating with z-LRGG-AMC as previously described (Pre-Dialysis). The second aliquot was dialyzed by washing with 3 volumes of assay buffer on a centricon YM-30 column, followed by analysis for isopeptidase activity by incubating with z-LRGG-AMC (Post-Dialysis).
Δ-12-PGJ2 irreversibility was determined. Cell lysates were incubated with vehicle or 100 μM test compound and isopeptidase activity was measured fluorimetrically. 500 μl portion of each sample were dialyzed through a Centricon filter with a molecular weight cut-off of […]. After washing with 3 volumes of assay buffer, isopeptidase activity was measured in the […].

ubiquitin isopeptidases [5] = experiment: In vitro isopeptidase activity in HCT 116 lysates, Ub-PEST; format: biochemical, human; details: HCT 116 lysates, 45 min
HCT 116 +/+ cells = details: Mullally et al., University of Utah, 2003; read-out: EC50 in competent HCT 116 cells; cited from earlier work
ubiquitin isopeptidases [6] = details: cells treated for 12 h; cited from earlier work
[7] = in vivo; cited from earlier work

Method for HCT 116 −/− cells: Cell viability was measured with MTT reagent as described in materials and methods.
Cell viability was detected by the MTT assay. Briefly, 1×10^5 cells were incubated per well of a sterile, 96-well assay plate with 0-60 μM of test compounds for 48 hours. MTT reagent was added to each well, final concentration of 0.5 mg/mL, and incubated for an additional 3 hours. The media was aspirated and remaining MTT reagent from each well and added 100 μL of HCl:isopropanol (1:24). The absorbance of each sample was measured at 405 nm.

SMILES | effect on Ub-PEST degradation, control substances (ubiquitin isopeptidases [1]) | EC50 (RKO cells) [µM] | p53 dependence in NCI 60 cell line cancer screening data ([2]; analysis according to O'Connor et al., 1997) | LC50 ([2]; mean of 18 cell lines with wild type p53) [µM] | CC50 [3] [µM] | isopeptidase inhibition in treated cell lysates, pre-dialysis (ubiquitin isopeptidases [4]; 1 hour, 25° C.) | reversibility of isopeptidase inhibition, post-dialysis (ubiquitin isopeptidases [4]; dialysis with 3 volumes of assay buffer) | concentration at which inhibition of Ub-PEST degradation is initially observed (ubiquitin isopeptidases [5]) [µM] | concentration of complete (total) inhibition of Ub-PEST degradation (ubiquitin isopeptidases [5]) [µM] | EC50 (HCT 116 −/− cells) [µM] | EC50 (HCT 116 +/+ cells) [µM] | concentration showing inhibition of Ub-PEST degradation, previous in vivo studies (ubiquitin isopeptidases [6]) [µM] | cross-resistance with cisplatin and adriamycin [7]
C=C1C(=O)C2=CC1CCC(=O)C1(C)CCC(OC(C)=O)C(C)(C)C1CC2O (stereo not shown) [NSC-302979, shikoccin] | expected inhibition of Ub-PEST degradation | 1.8 ± 0.1 | act independently of p53 | 54 | 66 | – | – | – | – | – | – | – | –
CCCCC[C@H](O)C/C=C1/C(=O)C=C[C@@H]1C/C=C\CCCC(=O)O [Δ12-PGJ2, Δ12-prostaglandin J2] | – | – | – | – | – | inhibited isopeptidase activity in treated cell lysates | could not be reversed by dialysis | 60 | 200 | 4.1 ± 0.1 | 3.6 | 60 | little cross-resistance with cisplatin and adriamycin
